This note sets out measurements from paper PMC8022858, “Discovery of bone morphogenetic protein 7-derived peptide sequences that attenuate the human osteoarthritic chondrocyte phenotype” (Molecular Therapy. Methods & Clinical Development, 2021).

For assay [1], the system named is OA-HACs with NKX3-2 knockdown. Kind of assay: NKX3-2 siRNA knockdown and peptide treatment, hypertrophy gene expression. Format: cell-based, human. The note with it: OA-HAC pool (n = 4 donors), then 100 nM peptide 24 h (Figure 5A); for chondrocyte hypertrophy-inhibiting bioactivity in control (scrambled siRNA) condition: 100 nM siRNA 24 h; for rescue of hypertrophy-inducing consequences of NKX3-2 knockdown: NKX3-2 siRNA 100 nM 24 h. The source says:
A chondrocyte phenotypic consequence of exposure to peptides p[63−82] or p[113−132] is an overall attenuation of hypertrophy. Previously, we[17]^,[27] and others[29]^,[30] recognized NKX3-2 (BAPX1) as an important negative regulator of chondrocyte hypertrophy, and the hypertrophy-inhibiting action of BMP7 on OA-HACs is, at least in part, mediated via NKX3-2.[27] Taking into consideration that the ability to induce NKX3-2 expression was one of the screening criteria for the identification of the here-described, BMP7-derived peptides (Figures 2 and S2), we next investigated whether NKX3-2 is involved in the bioactivity of peptides p[63−82] and p[113−132]. By means of small interfering (si)RNA transfection, NKX3-2 expression was reduced in a pool of OA-HACs. […] Treatment of control conditions (scrambled siRNA) with peptide p[63−82] or p[113−132]confirmed the peptides’ chondrocyte hypertrophy-inhibiting bioactivity (Figure 5A).
Figure 5 Molecular characterization of peptides p[63−82] and p[113−132] (A) A pool of OA-HACs (n = 4 donors) was transfected with a scrambled siRNA or with an NKX3-2 siRNA (100 nM siRNA) and cultured for 24 h. Cultures were then exposed to peptide p[63−82] or p[113−132] (100 nM peptide). Samples were harvested 24 h later and analyzed for the expression of the indicated mRNAs (normalized to 28S rRNA). (B) SW1353 chondrocytic cells were transfected with BRE (SMAD1/5/8 reporter) or CAGA12 (SMAD2/3 reporter) firefly luciferase-reporter plasmids. A CMV-Gaussia plasmid was cotransfected as a transfection control. Cells were then cultured for 24 h and subsequently exposed to control, p[63−82], or p[113−132] for 8 h. Firefly and Gaussia bioluminescence were measured in cells and medium (respectively), and relative light units (RLUs) of firefly luciferase were normalized for the Gaussia luciferase signal. The normalized firefly luciferase signal of the control condition was set at 1, and peptide conditions were calculated relative to the control condition (FL/GL). Error bars represent mean ± SEM; statistical significance for peptide conditions versus siScrambled or siNKX3-2 (A) or control condition (B) as determined by unpaired two-tailed Student’s t test is represented as ∗p < 0.05, ∗∗p < 0.01, and ∗∗∗p < 0.001. […] An alanine-scanning bioactivity score (sum of the fold change gene expression of COL10A1, ALPL, MMP13, and COL2A1 plus NKX3-2 of the alanine-substituted peptides versus the wild-type p[63−82] peptide) was calculated for each alanine substitution in the amino acid sequence of peptide p[63−82] and is represented by the height of each letter on the y axis (data in Figure S4). […]

In another assay the test system is OA-HACs. Nature of the assay: ALP activity assay in OA-HAC cultures. Format: cell-based, human. The note with it: three individual OA-HAC donors, 100 nM peptide, 24 h, normalized to total protein (Figure 2E). Here is the method:
Figure 2 Bioactivity of BMP7-derived peptides p[63−82] and p[113−132] on OA-HACs Complete peptide library screening quantitative real-time PCR dataset for peptides p[63−82] and p[113−132] is presented. (A) SOX9, COL2A1, and NKX3-2 mRNA expression in the 18 OA-HAC pool exposed to 1,000, 100, 10, or 1 nM of peptide p[63−82] and p[113−132] is shown and presented relative to control (black bars) and alongside full-length BMP7 (white bars). (B) Similar to (A) but for chondrocyte hypertrophy-associated genes RUNX2, COL10A1, and ALPL. (C) Similar to (A) but for cartilage extracellular matrix remodeling-associated genes MMP13 and ADAMTS5 and inflammation-related genes COX-2 and IL-6. […] (G) In the same OA-HAC pool of 18 OA-HAC donors from the peptide library screening, sequence dependency of peptides p[63−82] and p[113−132] was determined by exposing the OA-HAC pool to scrambled versions of peptides p[63−82] and p[113−132] […] Error bars represent mean ± SEM, and statistical significance for peptide conditions or BMP7 versus control condition as determined by unpaired two-tailed Student’s t test is represented as ∗p < 0.05, ∗∗p < 0.01, and ∗∗∗p < 0.001.
Cells were lysed in 1.5 M Tris-HCl (pH 9.0) and 2% (v/v) Triton X-100 and homogenized by sonication (Soniprep 150 MSE). […] Total protein concentration was determined by a BCA assay. […]

For the substance H-AAYYSEGESAFPLNSYMNAT-OH [p[63−82]], in assay [1], the “chondrocyte hypertrophy-inhibiting bioactivity in control (scrambled siRNA) condition” value is listed as “confirmed” and the “rescue of hypertrophy-inducing consequences of NKX3-2 knockdown” value is listed as “did not show rescue”. Besides, the “alkaline phosphatase (ALP) activity” value with OA-HACs is “significant decrease”.
Taken in the same sequence, the figures for H-SVLYFDDSSNVILKKYRNMV-OH [p[113−132]] were “confirmed”, “did not show rescue” and “significant decrease”.
